From patent publication US8927499B2, “Glycine derivative capable of inhibiting melanin formation and composition using the same” (Corum Inc., priority 2010, dated 2015)
Where a SMILES comes first, the peptide text is derived from it. [ ]: non-standard residue; d: D form. Sar = CNCC(=O)O

What was measured:
[1] = Color stability test (accelerated, 45° C. oven); format: physicochemical
Experimental: The test samples (compounds (II), (III), and (IV)) and the reference sample are separately dissolved in water and a buffer solution with pH=6 to prepare 0.5 wt % solutions. The buffer solution with pH=6 is a mixture solution of 3.8 ml 0.1M citric acid and 16.2 ml citrate. […] of a test sample are dissolved in the mixture solution to prepare a 0.5 wt % solution. Then, the solutions are placed in a 45° C. oven to perform an accelerated color stability test. After 14 and 28 days, the spectrophotometer is used to measure the light transmittance of these solutions at 440 nm.

[2] = system: 3T3 (Swiss albino mouse fibroblast) cells; test: Cytotoxicity test by MTT assay (3T3); format: cell-based; conditions: 3T3 and B16-F10 cells, compared with ascorbic acid derivative known to have no apparent cytotoxicity
Experimental: The cytotoxicity test is evaluated by MTT assay.

B16-F10 cells = test: Melanogenesis inhibition test; format: cell-based, Mus musculus; conditions: 3 days, OD 405 nm, tyrosine + α-MSH stimulated
Experimental: Melanogenesis Inhibition Test In the melanogenesis inhibition test, Kojic acid is used as the positive control. Compounds (II), (III), and (IV) and ascorbic acid derivative are evaluated regarding their whitening effect under a concentration of no cytotoxicity to test the melanogenesis inhibiting ability. B16-F10 B16-F10 cells are placed in a 96-well plate and each well comprises 5000 cells (5000 cells/well). The cells are incubated at 37° C. in 5% CO2 and 10% FBS DMEM (Fetal Bovine Serum Dulbecco's modified Eagle's medium) overnight to allow the cells to attach to the wells. Melanin production rate (%) is defined by the following equation: [formula] where ODT represents the optical density of the test sample at the wavelength 405 nm by the spectrophotometer; ODB represents the optical density of the blank control at 405 nm; ODN represents the optical density of the negative control at 405 nm. The negative control comprises 0.1 mg/ml of tyrosine and 1 μM of α-MSH (α-melanocyte stimulating hormone). The blank control comprises 0.1 mg/ml of tyrosine but no α-MSH. The test sample is prepared by stocking 5 wt % of compound (II), (III), or (IV) in phenol red free DMEM and 5 wt % FBS no phenol red DMEM with 0.1 mg/ml tyrosine and 1 μM α-MSH is prepared and filtered by a 0.22 μm filter. 0.1 mg/ml tyrosine may cause the medium over saturated and thus centrifugal filtration is required. The testing sample was prepared in the medium mentioned above. Until cells were at full confluence, they were treated with test samples and reference samples (prepared above) 100 μL each well for 3 days. After 3 days incubation, 100 μL 1N NaOH is added in each well. The solution is placed on a shaking table at least 10 minutes. The optical density of the test sample at 405 nm is measured. The positive control is Kojic acid (500 ppm concentration). Based on student's t-test, the P value is less than 0.05.

[3] = 0.5 wt % aqueous solution, 14 days
[4] = 0.5 wt % aqueous solution, 28 days
[5] = 0.5 wt % in citric acid buffer solution pH = 6, 14 days
[6] = 0.5 wt % in citric acid buffer solution pH = 6, 28 days

SMILES | Transmittance % (440 nm) [1, 3] | Transmittance % (440 nm) [1, 4] | Transmittance % (440 nm) [1, 5] | Transmittance % (440 nm) [1, 6] | safety of using (cytotoxicity) [2] | melanin production rate % ± standard deviation (B16-F10 cells; sample concentration 0.2%) | melanin production rate % ± standard deviation (B16-F10 cells; sample concentration 0.4%)
O=C1O[C@H]([C@@H](O)CO)C(O)=C1O [Ascorbic acid] | 37.8% | 20.8% | 0.7% | 2.1% |  |  | 
CC(=O)NCC(=O)NCCC(=O)O [Compound (II), 3(2-acetylamino-acetylamino)-propionic acid] | 98.9% | 99.8% | 99.4% | 99.3% | the same as that of ascorbic acid derivative | 64.7 ± 12.8% | 11.0 ± 2.9%
CC(=O)NCC(=O)NCCCC(=O)O [Compound (III), 4-(2-Acetylamino-acetylamino)-butyric acid] | 99.6% | 99.5% | 100% | 99.9% | the same as that of ascorbic acid derivative | 70.4 ± 10.0% | 14.2 ± 3.0%
CC(=O)NCC(=O)N(C)CC(=O)O [Compound (IV), [(2-Acetylamino-acetyl)-methyl-amino]-acetic acid] (Ac-Gly-[Sar]-OH) | 99.7% | 100% | 100% | 100% | the same as that of ascorbic acid derivative | 60.8 ± 22.3% | 15.0 ± 5.6%
O=c1cc(CO)occ1O [Kojic acid] | 94.9% | 81% | 34.8% | 4.0% |  |  | 
OC[C@H]1O[C@@H](Oc2ccc(O)cc2)[C@H](O)[C@@H](O)[C@@H]1O [arbutin] | 96.7% | 95.4% |  |  |  |  | 
O=C1O[C@H]([C@@H](O)CO)C(O)=C1O[C@H]1O[C@H](CO)[C@@H](O)[C@H](O)[C@H]1O [ascorbic acid 2-glucoside (AA2G), ascorbic acid 2-glucoside] | 97.8% | 96.9% |  |  |  | 86.8 ± 3.4% | 76.2 ± 10.5%
O=C1O[C@H]([C@@H](O)CO)C(O)=C1OP(=O)([O-])[O-].[Mg+2] [ascorbic acid 2-phosphate magnesium] |  |  | 85.6% | 80.9% |  | 105.3 ± 3.4% | 88.4 ± 11.4%
NCCC(=O)N[C@@H](Cc1cnc[nH]1)C(=O)O [carnosine] |  |  |  |  |  | 129 ± 1.7% | 141 ± 10.5%
CCOC1=C(O)C(=O)O[C@@H]1[C@@H](O)CO [ethyl ascorbic acid] |  |  | 98.6% | 97.5% |  | 86.4 ± 2.6% | 78.9 ± 6.3%
